Data: ChEMBL document CHEMBL3872214, “Synthesis and evaluation of in vivo antioxidant, in vitro antibacterial, MRSA and antifungal activity of novel substituted isatin N-(2,3,4,6-tetra-O-acetyl-β-d-glucopyranosyl)thiosemicarbazones” (Eur J Med Chem, 2016)
Values after ≈ are worked out from the molar mass of the structure shown.

What was measured:
Format in all cases: functional
Bacillus subtilis = assay: Antibacterial activity against Bacillus subtilis ATCC 11774 after 18 to 20 hrs by two-fold microbroth dilution method
Staphylococcus aureus [1] = assay: Antibacterial activity against methicillin-resistant Staphylococcus aureus 198-2 after 18 to 20 hrs by two-fold microbroth dilution method
Rattus norvegicus [2] = assay: (§1) Antioxidant activity in CCL4-intoxicated Wistar albino rat assessed as liver cytosolic superoxide dismutase activity per mg protein at 100 mg/kg, ip administered for 7 consecutive days after DL-alpha-tocopherol acetate treatment followed by CCL4 dosing measured after 24 hrs by xanthine based assay (reference value: 5.27 +/- 0.22 U)
Candida albicans = assay: Antifungal activity against Candida albicans ATCC 7754 after 72 hrs by agar dilution method; details: ATCC 7754, 72 h
Klebsiella pneumoniae = assay: Antibacterial activity against Klebsiella pneumoniae ATCC 4352 after 18 to 20 hrs by two-fold microbroth dilution method
Rattus norvegicus [3] = assay: as §1, with “catalase” for “superoxide dismutase”, “H2O2” for “xanthine”, “220.15” for “5.27”, “11.43” for “0.22”
[4] = Antifungal activity against Saccharomyces cerevisiae SH20 after 72 hrs by agar dilution method
[5] = system: Staphylococcus epidermidis; assay: Antibacterial activity against Staphylococcus epidermidis ATCC 12228 after 18 to 20 hrs by two-fold microbroth dilution method
Staphylococcus aureus [6] = assay: Antibacterial activity against methicillin-resistant Staphylococcus aureus 198-3 after 18 to 20 hrs by two-fold microbroth dilution method
Klebsiella aerogenes = assay: Antibacterial activity against Enterobacter aerogenes ATCC 13048 after 18 to 20 hrs by two-fold microbroth dilution method
Escherichia coli = assay: Antibacterial activity against Escherichia coli ATCC 25922 after 18 to 20 hrs by two-fold microbroth dilution method
Staphylococcus aureus [7] = assay: Antibacterial activity against methicillin-resistant Staphylococcus aureus 198-1 after 18 to 20 hrs by two-fold microbroth dilution method
Aspergillus niger = assay: Antifungal activity against Aspergillus niger 439 after 72 hrs by agar dilution method; details: Aspergillus niger, 439, 72 h
[8] = Antifungal activity against Fusarium oxysporum M42 after 72 hrs by agar dilution method
Rattus norvegicus [9] = assay: as §1, with “glutathione peroxidase” for “superoxide dismutase”, “H2O2” for “xanthine”, “spectrophotometric analysis” for “assay”, “0.28” for “5.27”, “0.01” for “0.22”
Pseudomonas aeruginosa = assay: Antibacterial activity against Pseudomonas aeruginosa […] after 18 to 20 hrs by two-fold microbroth dilution method
Staphylococcus aureus [10] = assay: Antibacterial activity against Staphylococcus aureus ATCC 11632 after 18 to 20 hrs by two-fold microbroth dilution method

Compound | MIC (Bacillus subtilis) | MIC (Staphylococcus aureus [1]) | Activity (Rattus norvegicus [2]) | MIC (Candida albicans) | MIC (Klebsiella pneumoniae) | Activity (Rattus norvegicus [3]) | MIC [4] | MIC [5] | MIC (Staphylococcus aureus [6]) | MIC (Klebsiella aerogenes) | MIC (Escherichia coli) | MIC (Staphylococcus aureus [7]) | MIC (Aspergillus niger) | MIC [8] | Activity (Rattus norvegicus [9]) | MIC (Pseudomonas aeruginosa) | MIC (Staphylococcus aureus [10])
CC(=O)OC[C@H]1O[C@@H](NC(=S)N/N=C2/C(=O)N(CC(C)C)c3ccccc32)[C@H](OC(C)=O)[C@@H](OC(C)=O)[C@@H]1OC(C)=O | 100 µM (≈ 60.7 µg/mL) | 100 µM (≈ 60.7 µg/mL) | 9.88 U | 100 µM (≈ 60.7 µg/mL) | 12.5 µM (≈ 7.58 µg/mL) | 375.45 U | 100 µM (≈ 60.7 µg/mL) | 100 µM (≈ 60.7 µg/mL) | 100 µM (≈ 60.7 µg/mL) | 12.5 µM (≈ 7.58 µg/mL) | 12.5 µM (≈ 7.58 µg/mL) | 100 µM (≈ 60.7 µg/mL) | 100 µM (≈ 60.7 µg/mL) | 100 µM (≈ 60.7 µg/mL) | 0.91 U | 12.5 µM (≈ 7.58 µg/mL) | 100 µM (≈ 60.7 µg/mL)
CC(=O)OC[C@H]1O[C@@H](NC(=S)N/N=C2/C(=O)Nc3ccccc32)[C@H](OC(C)=O)[C@@H](OC(C)=O)[C@@H]1OC(C)=O | 100 µM (≈ 55.1 µg/mL) | 200 µM (≈ 110 µg/mL) | 5.81 U | 200 µM (≈ 110 µg/mL) | 50 µM (≈ 27.5 µg/mL) | 295.32 U | 100 µM (≈ 55.1 µg/mL) | 100 µM (≈ 55.1 µg/mL) | 200 µM (≈ 110 µg/mL) | 50 µM (≈ 27.5 µg/mL) | 50 µM (≈ 27.5 µg/mL) | 200 µM (≈ 110 µg/mL) | 100 µM (≈ 55.1 µg/mL) | 100 µM (≈ 55.1 µg/mL) | 1.77 U | 50 µM (≈ 27.5 µg/mL) | 200 µM (≈ 110 µg/mL)
CC(=O)OC[C@H]1O[C@@H](NC(=S)N/N=C2/C(=O)N(Cc3ccccc3)c3ccccc32)[C@H](OC(C)=O)[C@@H](OC(C)=O)[C@@H]1OC(C)=O | 200 µM (≈ 128 µg/mL) | 200 µM (≈ 128 µg/mL) | 8.6 U | 400 µM (≈ 256 µg/mL) | 100 µM (≈ 64.1 µg/mL) | 250.63 U | 400 µM (≈ 256 µg/mL) | 200 µM (≈ 128 µg/mL) | 200 µM (≈ 128 µg/mL) | 100 µM (≈ 64.1 µg/mL) | 100 µM (≈ 64.1 µg/mL) | 200 µM (≈ 128 µg/mL) | 100 µM (≈ 64.1 µg/mL) | 100 µM (≈ 64.1 µg/mL) | 1.69 U | 100 µM (≈ 64.1 µg/mL) | 200 µM (≈ 128 µg/mL)
CC(=O)OC[C@H]1O[C@@H](NC(=S)N/N=C2/C(=O)Nc3c2cc(Cl)cc3[N+](=O)[O-])[C@H](OC(C)=O)[C@@H](OC(C)=O)[C@@H]1OC(C)=O | 3.12 µM (≈ 1.97 µg/mL) | 6.25 µM (≈ 3.94 µg/mL) | 10.57 U | 6.25 µM (≈ 3.94 µg/mL) | 25 µM (≈ 15.7 µg/mL) | 389.53 U | 25 µM (≈ 15.7 µg/mL) | 6.25 µM (≈ 3.94 µg/mL) | 6.25 µM (≈ 3.94 µg/mL) | 25 µM (≈ 15.7 µg/mL) | 25 µM (≈ 15.7 µg/mL) | 6.25 µM (≈ 3.94 µg/mL) | 12.5 µM (≈ 7.87 µg/mL) | 25 µM (≈ 15.7 µg/mL) | 0.35 U | 25 µM (≈ 15.7 µg/mL) | 6.25 µM (≈ 3.94 µg/mL)
CC(=O)OC[C@H]1O[C@@H](NC(=S)N/N=C2/C(=O)Nc3ccc([N+](=O)[O-])cc32)[C@H](OC(C)=O)[C@@H](OC(C)=O)[C@@H]1OC(C)=O | 100 µM (≈ 59.6 µg/mL) | 200 µM (≈ 119 µg/mL) | 6.45 U | 100 µM (≈ 59.6 µg/mL) | 50 µM (≈ 29.8 µg/mL) | 283.53 U | 100 µM (≈ 59.6 µg/mL) | 100 µM (≈ 59.6 µg/mL) | 200 µM (≈ 119 µg/mL) | 50 µM (≈ 29.8 µg/mL) | 50 µM (≈ 29.8 µg/mL) | 200 µM (≈ 119 µg/mL) | 100 µM (≈ 59.6 µg/mL) | 100 µM (≈ 59.6 µg/mL) | 1.89 U | 50 µM (≈ 29.8 µg/mL) | 200 µM (≈ 119 µg/mL)
CC(=O)OC[C@H]1O[C@@H](NC(=S)N/N=C2/C(=O)Nc3ccc(C(C)C)cc32)[C@H](OC(C)=O)[C@@H](OC(C)=O)[C@@H]1OC(C)=O | 25 µM (≈ 14.8 µg/mL) | 12.5 µM (≈ 7.41 µg/mL) | 5.82 U | 100 µM (≈ 59.3 µg/mL) | 25 µM (≈ 14.8 µg/mL) | 260.61 U | 50 µM (≈ 29.6 µg/mL) | 12.5 µM (≈ 7.41 µg/mL) | 12.5 µM (≈ 7.41 µg/mL) | 50 µM (≈ 29.6 µg/mL) | 50 µM (≈ 29.6 µg/mL) | 12.5 µM (≈ 7.41 µg/mL) | 100 µM (≈ 59.3 µg/mL) | 25 µM (≈ 14.8 µg/mL) | 1.75 U | 25 µM (≈ 14.8 µg/mL) | 12.5 µM (≈ 7.41 µg/mL)
CC(=O)OC[C@H]1O[C@@H](NC(=S)N/N=C2/C(=O)Nc3c(C)cccc32)[C@H](OC(C)=O)[C@@H](OC(C)=O)[C@@H]1OC(C)=O | 25 µM (≈ 14.1 µg/mL) | 12.5 µM (≈ 7.06 µg/mL) | 4.6 U | 100 µM (≈ 56.5 µg/mL) | 25 µM (≈ 14.1 µg/mL) | 250.63 U | 25 µM (≈ 14.1 µg/mL) | 12.5 µM (≈ 7.06 µg/mL) | 12.5 µM (≈ 7.06 µg/mL) | 25 µM (≈ 14.1 µg/mL) | 25 µM (≈ 14.1 µg/mL) | 12.5 µM (≈ 7.06 µg/mL) | 100 µM (≈ 56.5 µg/mL) | 25 µM (≈ 14.1 µg/mL) | 1.69 U | 25 µM (≈ 14.1 µg/mL) | 12.5 µM (≈ 7.06 µg/mL)
Oc1ccc(/C=C/c2cc(O)cc(O)c2)cc1 [RESVERATROL] | – | – | 7.31 U | – | – | 282.12 U | – | – | – | – | – | – | – | – | 0.33 U | – | –
